Assay results published in publication PMC3686309 (ACS medicinal chemistry letters, 2013).

Columns and labels:
[1] = molecular target: WT IDH1 (Homo sapiens, UniProt O75874); test: WT IDH1 enzyme inhibition; format: biochemical; conditions: at 100 μM
[2] = system: WI-38 fibroblast cells; test: Cytotoxicity against WI-38 fibroblast cells; format: cell-based, human
[3] = Cytotoxicity against WI-38 fibroblast cells; format: cell-based, human; conditions: human, WI-38 fibroblast cells

Chain of WT IDH1 (O75874 whole entry): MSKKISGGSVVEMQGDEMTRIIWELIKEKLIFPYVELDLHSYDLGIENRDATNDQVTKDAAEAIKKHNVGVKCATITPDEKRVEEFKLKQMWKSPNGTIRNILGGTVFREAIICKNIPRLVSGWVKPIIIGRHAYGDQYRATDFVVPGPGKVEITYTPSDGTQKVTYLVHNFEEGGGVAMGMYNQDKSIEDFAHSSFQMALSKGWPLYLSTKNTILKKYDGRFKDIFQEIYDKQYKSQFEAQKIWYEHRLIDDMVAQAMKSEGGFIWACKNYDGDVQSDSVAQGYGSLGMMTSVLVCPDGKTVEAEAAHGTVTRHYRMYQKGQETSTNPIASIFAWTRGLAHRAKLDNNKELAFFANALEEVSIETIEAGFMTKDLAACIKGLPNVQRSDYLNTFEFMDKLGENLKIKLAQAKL

SMILES	activity against WT IDH1 [1]	cytotoxicity against human cells (in words) [2]	EC50 [3] [µM]
O=c1ccc(Cc2ccccc2)cn1O [Compound 1]	no activity	–	–
Cc1cc(Cc2ccccc2)n(O)c(=O)c1 [Compound 2]	–	do not have cytotoxicity	> 50
Cc1cc(Cc2ccc(O)cc2)n(O)c(=O)c1 [Compound 3]	–	do not have cytotoxicity	> 50
O=c1cccc(Cc2ccccc2)n1O [Compound 4]	–	–	> 50
CC(C)c1cc(Cc2ccccc2)n(O)c(=O)c1 [Compound 5]	–	–	> 50
